ChEMBL document CHEMBL4038287, “Design, synthesis, and in vitro evaluation of novel antifungal triazoles” (2017)
Converted amounts (≈) assume the structure as drawn.

Columns and labels:
Assay type in all cases: functional
Nannizzia gypsea = experiment: Antifungal activity against Microsporum gypseum isolate cmccftla by micro-broth dilution method
Candida albicans [1] = experiment: Antifungal activity against Candida albicans isolate Y0109 by micro-broth dilution method
Candida parapsilosis = experiment: Antifungal activity against Candida parapsilosis isolate 22019 by micro-broth dilution method; conditions: Lodderomyces parapsilosis
Aspergillus fumigatus = experiment: Antifungal activity against Aspergillus fumigatus isolate 7544 by micro-broth dilution method
Nakaseomyces glabratus = experiment: Antifungal activity against Candida glabrata isolate 537 by micro-broth dilution method
Cryptococcus neoformans = experiment: Antifungal activity against Cryptococcus neoformans isolate 32605 by micro-broth dilution method
Trichophyton rubrum = experiment: Antifungal activity against Trichophyton rubrum isolate cmccftla by micro-broth dilution method
Candida albicans [2] = experiment: Antifungal activity against Candida albicans isolate SC5314 by micro-broth dilution method

SMILES | MIC80 (Nannizzia gypsea) [µg/mL] | MIC80 (Candida albicans [1]) [µg/mL] | MIC80 (Candida parapsilosis) [µg/mL] | MIC80 (Aspergillus fumigatus) [µg/mL] | MIC80 (Nakaseomyces glabratus) [µg/mL] | MIC80 (Cryptococcus neoformans) [µg/mL] | MIC80 (Trichophyton rubrum) [µg/mL] | MIC80 (Candida albicans [2]) [µg/mL]
C[C@@H](c1cc(-c2c(F)cccc2F)no1)[C@](O)(Cn1cncn1)c1cc(F)ccc1F | > 8 | 1 (≈ 2.31 µM) | 1 (≈ 2.31 µM) | > 8 | 0.125 (≈ 0.289 µM) | 0.0625 (≈ 0.145 µM) | 4 (≈ 9.25 µM) | 0.5 (≈ 1.16 µM)
C[C@@H](c1cc(-c2c(F)cccc2F)no1)[C@](O)(Cn1cncn1)c1ccc(F)cc1F | 1 (≈ 2.31 µM) | 0.0625 (≈ 0.145 µM) | 0.125 (≈ 0.289 µM) | 2 (≈ 4.63 µM) | 0.0625 (≈ 0.145 µM) | 0.125 (≈ 0.289 µM) | 0.125 (≈ 0.289 µM) | 0.125 (≈ 0.289 µM)
C[C@@H](c1cc(-c2ccc(Cl)cc2)no1)[C@](O)(Cn1cncn1)c1ccc(F)cc1F | 1 (≈ 2.32 µM) | 0.0313 (≈ 0.0726 µM) | 0.125 (≈ 0.29 µM) | 4 (≈ 9.28 µM) | 0.125 (≈ 0.29 µM) | 0.125 (≈ 0.29 µM) | 0.125 (≈ 0.29 µM) | 0.125 (≈ 0.29 µM)
C[C@@H](c1cc(-c2ccc(F)cc2)no1)[C@](O)(Cn1cncn1)c1cc(F)ccc1F | > 8 | 0.125 (≈ 0.302 µM) | 0.25 (≈ 0.603 µM) | > 8 | 0.0625 (≈ 0.151 µM) | 0.0625 (≈ 0.151 µM) | 1 (≈ 2.41 µM) | 0.125 (≈ 0.302 µM)
C[C@@H](c1cc(-c2ccccc2F)no1)[C@](O)(Cn1cncn1)c1ccc(F)cc1F | 0.5 (≈ 1.21 µM) | 0.0625 (≈ 0.151 µM) | 0.125 (≈ 0.302 µM) | 2 (≈ 4.83 µM) | 0.0313 (≈ 0.0755 µM) | 0.125 (≈ 0.302 µM) | 0.0625 (≈ 0.151 µM) | 0.0313 (≈ 0.0755 µM)
Cc1ccc(-c2cc([C@H](C)[C@](O)(Cn3cncn3)c3ccc(F)cc3F)on2)cc1 | 2 (≈ 4.87 µM) | 0.25 (≈ 0.609 µM) | 0.125 (≈ 0.305 µM) | 8 (≈ 19.5 µM) | 0.25 (≈ 0.609 µM) | 0.125 (≈ 0.305 µM) | 0.25 (≈ 0.609 µM) | 0.0625 (≈ 0.152 µM)
C[C@@H](c1cc(-c2ccc(F)cc2F)no1)[C@](O)(Cn1cncn1)c1cc(F)ccc1F | 4 (≈ 9.25 µM) | 0.125 (≈ 0.289 µM) | 1 (≈ 2.31 µM) | > 8 | 0.0625 (≈ 0.145 µM) | 0.0625 (≈ 0.145 µM) | 1 (≈ 2.31 µM) | 0.25 (≈ 0.578 µM)
C[C@@H](c1cc(-c2ccc(F)cc2F)no1)[C@](O)(Cn1cncn1)c1ccc(F)cc1F | 0.5 (≈ 1.16 µM) | 0.0625 (≈ 0.145 µM) | 0.125 (≈ 0.289 µM) | 2 (≈ 4.63 µM) | 0.0313 (≈ 0.0724 µM) | 0.125 (≈ 0.289 µM) | 0.0625 (≈ 0.145 µM) | 0.0625 (≈ 0.145 µM)
C[C@@H](c1cc(-c2c(F)cc(F)cc2F)no1)[C@](O)(Cn1cncn1)c1ccc(F)cc1F | 1 (≈ 2.22 µM) | 0.125 (≈ 0.278 µM) | 0.125 (≈ 0.278 µM) | 2 (≈ 4.44 µM) | 0.0625 (≈ 0.139 µM) | 0.0625 (≈ 0.139 µM) | 0.5 (≈ 1.11 µM) | 0.25 (≈ 0.555 µM)
C[C@@H](c1cc(-c2ccc(C(F)(F)F)cc2)no1)[C@](O)(Cn1cncn1)c1ccc(F)cc1F | 2 (≈ 4.31 µM) | 0.125 (≈ 0.269 µM) | 1 (≈ 2.15 µM) | > 8 | 1 (≈ 2.15 µM) | 0.125 (≈ 0.269 µM) | 2 (≈ 4.31 µM) | 0.5 (≈ 1.08 µM)
C[C@@H](c1cc(-c2ccc(OC(F)(F)F)cc2)no1)[C@](O)(Cn1cncn1)c1ccc(F)cc1F | 4 (≈ 8.33 µM) | 0.0313 (≈ 0.0652 µM) | 0.5 (≈ 1.04 µM) | 8 (≈ 16.7 µM) | 0.0625 (≈ 0.13 µM) | 0.125 (≈ 0.26 µM) | 0.125 (≈ 0.26 µM) | 0.125 (≈ 0.26 µM)
C[C@@H](c1cc(-c2ccc(Cl)cc2F)no1)[C@](O)(Cn1cncn1)c1cc(F)ccc1F | 8 (≈ 17.8 µM) | 0.25 (≈ 0.557 µM) | 1 (≈ 2.23 µM) | > 8 | 0.0313 (≈ 0.0697 µM) | 0.125 (≈ 0.279 µM) | 1 (≈ 2.23 µM) | 0.5 (≈ 1.11 µM)
C[C@@H](c1cc(-c2ccc(Cl)c(Cl)c2)no1)[C@](O)(Cn1cncn1)c1ccc(F)cc1F | 4 (≈ 8.6 µM) | 0.0625 (≈ 0.134 µM) | 0.5 (≈ 1.07 µM) | > 8 | 0.25 (≈ 0.537 µM) | 0.25 (≈ 0.537 µM) | 0.5 (≈ 1.07 µM) | 0.25 (≈ 0.537 µM)
OC(Cn1cncn1)(Cn1cncn1)c1ccc(F)cc1F [FLUCONAZOLE] | 32 (≈ 104 µM) | 0.25 (≈ 0.816 µM) | 2 (≈ 6.53 µM) | > 64 | 2 (≈ 6.53 µM) | 0.5 (≈ 1.63 µM) | 8 (≈ 26.1 µM) | 0.5 (≈ 1.63 µM)
CC(=O)N1CCN(c2ccc(OCC3COC(Cn4ccnc4)(c4ccc(Cl)cc4Cl)O3)cc2)CC1 (stereo not drawn) [KETOCONAZOLE] | 1 (≈ 1.88 µM) | 0.25 (≈ 0.47 µM) | 0.5 (≈ 0.941 µM) | 4 (≈ 7.53 µM) | 0.0625 (≈ 0.118 µM) | 0.0625 (≈ 0.118 µM) | 1 (≈ 1.88 µM) | 0.125 (≈ 0.235 µM)
C[C@@H](c1nc(-c2ccc(C#N)cc2)cs1)[C@](O)(Cn1cncn1)c1ccc(F)cc1F [RAVUCONAZOLE] | 1 (≈ 2.29 µM) | 0.0625 (≈ 0.143 µM) | 0.25 (≈ 0.571 µM) | 2 (≈ 4.57 µM) | 0.125 (≈ 0.286 µM) | 0.125 (≈ 0.286 µM) | 0.125 (≈ 0.286 µM) | 0.0625 (≈ 0.143 µM)
